Legend:
Rattus norvegicus = species on record: Rattus norvegicus; assay: Maximum enzyme concentration from lipopolysaccharide treated rat liver.; format: functional
[1] = target: Nitric oxide synthase, inducible (Homo sapiens, UniProt P35228); assay: The compound was evaluated for the inhibitory potencies using human Inducible nitric oxide synthase (hiNOS)
[2] = target: T1, Nitric oxide synthase, inducible (Mus musculus, UniProt P29477); assay: Binding affinity against mouse Inducible nitric oxide synthase (iNOS)
T1 sequence (P29477 whole entry): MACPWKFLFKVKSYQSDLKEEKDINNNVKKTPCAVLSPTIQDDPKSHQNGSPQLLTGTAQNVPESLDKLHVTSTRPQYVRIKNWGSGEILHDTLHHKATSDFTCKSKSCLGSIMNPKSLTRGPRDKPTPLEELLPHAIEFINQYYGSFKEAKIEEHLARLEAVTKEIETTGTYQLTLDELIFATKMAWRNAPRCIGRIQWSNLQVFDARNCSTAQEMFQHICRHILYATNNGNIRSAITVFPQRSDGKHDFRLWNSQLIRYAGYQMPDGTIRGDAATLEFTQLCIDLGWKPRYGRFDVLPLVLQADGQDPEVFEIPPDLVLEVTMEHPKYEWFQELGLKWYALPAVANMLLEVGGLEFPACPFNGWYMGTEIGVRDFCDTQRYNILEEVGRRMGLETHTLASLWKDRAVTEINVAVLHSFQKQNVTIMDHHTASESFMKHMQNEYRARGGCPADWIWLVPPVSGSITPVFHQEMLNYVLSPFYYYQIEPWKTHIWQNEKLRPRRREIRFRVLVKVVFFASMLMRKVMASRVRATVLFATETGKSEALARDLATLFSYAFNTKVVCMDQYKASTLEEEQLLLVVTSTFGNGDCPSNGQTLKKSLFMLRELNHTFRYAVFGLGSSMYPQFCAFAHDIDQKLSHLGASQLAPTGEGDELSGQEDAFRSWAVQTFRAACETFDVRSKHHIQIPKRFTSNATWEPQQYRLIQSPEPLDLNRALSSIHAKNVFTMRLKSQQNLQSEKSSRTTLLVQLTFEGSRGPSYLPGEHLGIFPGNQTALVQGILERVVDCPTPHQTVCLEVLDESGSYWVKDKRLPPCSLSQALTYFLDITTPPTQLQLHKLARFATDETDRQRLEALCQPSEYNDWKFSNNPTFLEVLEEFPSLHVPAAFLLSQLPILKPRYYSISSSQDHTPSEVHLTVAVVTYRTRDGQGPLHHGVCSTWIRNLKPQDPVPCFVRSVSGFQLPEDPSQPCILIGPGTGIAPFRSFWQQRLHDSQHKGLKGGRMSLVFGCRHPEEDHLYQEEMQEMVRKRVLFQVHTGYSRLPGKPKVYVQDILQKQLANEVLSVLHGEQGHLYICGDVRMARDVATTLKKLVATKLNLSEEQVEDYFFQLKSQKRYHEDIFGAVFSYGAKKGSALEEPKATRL

Nitric oxide synthase 3 = target: T2, Nitric oxide synthase 3 (Homo sapiens, UniProt P29474); assay: The compound was evaluated for the inhibitory potencies using human Endothelial nitric oxide synthase
T2 sequence (P29474 whole entry): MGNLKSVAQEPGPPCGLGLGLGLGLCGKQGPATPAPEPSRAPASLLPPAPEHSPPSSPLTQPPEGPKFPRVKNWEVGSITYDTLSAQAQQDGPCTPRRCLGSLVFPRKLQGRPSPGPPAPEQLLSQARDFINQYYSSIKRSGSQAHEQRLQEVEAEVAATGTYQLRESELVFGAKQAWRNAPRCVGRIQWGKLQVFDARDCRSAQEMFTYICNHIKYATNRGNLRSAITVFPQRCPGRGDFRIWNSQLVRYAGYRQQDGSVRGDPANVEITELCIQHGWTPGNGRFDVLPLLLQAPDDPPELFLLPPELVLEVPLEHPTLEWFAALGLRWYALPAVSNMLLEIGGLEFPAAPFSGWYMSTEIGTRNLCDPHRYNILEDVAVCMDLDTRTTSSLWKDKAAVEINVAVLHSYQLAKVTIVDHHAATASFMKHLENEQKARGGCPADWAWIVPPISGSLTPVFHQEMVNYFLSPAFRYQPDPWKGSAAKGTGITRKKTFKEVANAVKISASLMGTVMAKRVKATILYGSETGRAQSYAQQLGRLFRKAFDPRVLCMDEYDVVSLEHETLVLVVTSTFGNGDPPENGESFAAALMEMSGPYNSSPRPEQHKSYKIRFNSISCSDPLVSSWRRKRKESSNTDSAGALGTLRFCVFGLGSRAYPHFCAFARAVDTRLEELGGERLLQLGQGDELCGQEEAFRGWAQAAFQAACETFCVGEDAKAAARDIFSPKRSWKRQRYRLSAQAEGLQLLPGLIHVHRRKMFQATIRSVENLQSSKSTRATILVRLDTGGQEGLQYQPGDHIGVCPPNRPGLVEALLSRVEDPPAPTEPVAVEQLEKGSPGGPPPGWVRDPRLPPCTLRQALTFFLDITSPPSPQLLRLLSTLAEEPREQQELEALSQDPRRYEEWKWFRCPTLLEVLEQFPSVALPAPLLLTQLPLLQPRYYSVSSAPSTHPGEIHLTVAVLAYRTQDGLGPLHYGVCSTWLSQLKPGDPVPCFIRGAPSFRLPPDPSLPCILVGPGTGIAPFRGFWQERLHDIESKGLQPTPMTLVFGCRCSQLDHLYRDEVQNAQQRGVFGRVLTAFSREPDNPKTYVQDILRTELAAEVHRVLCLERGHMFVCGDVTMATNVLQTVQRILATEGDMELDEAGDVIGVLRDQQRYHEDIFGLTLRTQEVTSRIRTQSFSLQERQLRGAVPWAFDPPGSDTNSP

Chain of Nitric oxide synthase, inducible (Homo sapiens, UniProt P35228) (P35228 whole entry): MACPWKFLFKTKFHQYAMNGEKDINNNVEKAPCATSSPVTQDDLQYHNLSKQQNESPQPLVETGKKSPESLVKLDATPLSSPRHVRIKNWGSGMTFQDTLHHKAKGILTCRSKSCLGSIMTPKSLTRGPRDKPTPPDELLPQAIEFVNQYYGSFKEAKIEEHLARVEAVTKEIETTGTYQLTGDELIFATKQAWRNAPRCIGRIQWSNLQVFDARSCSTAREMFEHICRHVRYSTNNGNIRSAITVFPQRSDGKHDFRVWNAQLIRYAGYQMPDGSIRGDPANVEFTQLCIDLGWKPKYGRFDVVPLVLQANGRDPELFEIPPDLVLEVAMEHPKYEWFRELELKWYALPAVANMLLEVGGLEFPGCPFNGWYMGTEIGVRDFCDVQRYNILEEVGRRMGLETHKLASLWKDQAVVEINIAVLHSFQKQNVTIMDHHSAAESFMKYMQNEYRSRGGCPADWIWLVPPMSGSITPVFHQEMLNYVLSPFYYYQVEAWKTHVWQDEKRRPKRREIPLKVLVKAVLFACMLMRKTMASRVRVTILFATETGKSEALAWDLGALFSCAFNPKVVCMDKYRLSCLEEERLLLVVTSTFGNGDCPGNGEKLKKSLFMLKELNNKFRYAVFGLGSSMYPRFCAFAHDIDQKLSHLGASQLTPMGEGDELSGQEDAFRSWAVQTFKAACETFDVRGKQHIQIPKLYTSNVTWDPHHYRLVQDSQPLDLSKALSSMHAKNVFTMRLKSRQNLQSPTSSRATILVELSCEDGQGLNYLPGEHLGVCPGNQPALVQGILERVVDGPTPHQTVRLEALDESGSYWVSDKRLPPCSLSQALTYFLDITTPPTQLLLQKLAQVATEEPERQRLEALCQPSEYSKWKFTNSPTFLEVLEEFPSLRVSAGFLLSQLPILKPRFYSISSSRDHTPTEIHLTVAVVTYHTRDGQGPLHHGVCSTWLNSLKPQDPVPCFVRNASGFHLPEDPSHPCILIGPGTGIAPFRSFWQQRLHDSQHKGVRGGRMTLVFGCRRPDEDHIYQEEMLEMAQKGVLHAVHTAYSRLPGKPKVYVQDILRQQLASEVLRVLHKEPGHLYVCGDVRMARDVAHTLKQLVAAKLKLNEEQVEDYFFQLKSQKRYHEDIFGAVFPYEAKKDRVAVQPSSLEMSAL

IC50 [1] [nM] | Ki [2] [nM] | IC50 (Nitric oxide synthase 3) [nM] | Structure (SMILES) | Bmax (Rattus norvegicus) [nM]
160 | 5.2 | 1300 | CCSC(=N)N [ETHYLISOTHIOUREA] | 85
3000 |  | 7000 | CSC(=N)N | 

Structure (SMILES) | IC50 [1] [nM] | Ki [2] [nM] | IC50 (Nitric oxide synthase 3) [nM] | Bmax (Rattus norvegicus) [nM]
N=C(N)SCCF | 140 |  | 1260 | 

Source: ChEMBL document CHEMBL1129456, “Synthesis and evaluation of two positron-labeled nitric oxide synthase inhibitors, S-[11C]methylisothiourea and S-(2-[18F]fluoroethyl)isothiourea, as potential positron emission tomography tracers” (J Med Chem, 1996)
